From article PMC3372491, “Application of Consensus Scoring and Principal Component Analysis for Virtual Screening against β-Secretase (BACE-1)” (PLoS ONE, 2012)

Molecular target: T1, β-secretase (BACE-1) (Homo sapiens, UniProt P56817)
T1 construct: gene BACE1
Assay: BACE-1 FRET enzymatic assay
Assay type: biochemical

T1 sequence (P56817 46-457): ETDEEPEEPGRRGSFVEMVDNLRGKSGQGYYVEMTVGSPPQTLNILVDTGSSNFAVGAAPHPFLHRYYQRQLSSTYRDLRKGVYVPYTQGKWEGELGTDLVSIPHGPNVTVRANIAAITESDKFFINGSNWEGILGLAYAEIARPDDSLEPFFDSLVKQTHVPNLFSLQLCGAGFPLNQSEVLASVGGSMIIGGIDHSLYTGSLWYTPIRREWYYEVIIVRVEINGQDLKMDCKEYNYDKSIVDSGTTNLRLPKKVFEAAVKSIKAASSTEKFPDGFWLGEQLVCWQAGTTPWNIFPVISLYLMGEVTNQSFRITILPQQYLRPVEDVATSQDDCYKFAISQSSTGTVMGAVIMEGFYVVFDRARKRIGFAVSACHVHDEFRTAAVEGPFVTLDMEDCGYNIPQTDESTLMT

| IC50 [µM] | SMILES |
| --- | --- |
| 51.6 | N[C@@H](CCCCNC(=O)OCc1ccccc1)C(=O)OCc1ccccc1 [compound 1, S450588] |
| 85.3 | O=C(NCc1ccccc1)[C@@H](O)[C@H](O)C(=O)NCc1ccccc1 [compound 2, 276065] |
